± gives the expanded uncertainty stated by the source.
How the values were obtained:
[1] = xn = mol fraction of the nth substance listed; conditions: 298.15 K, 101 kPa, Liquid, Vibrating tube method
[2] = excess molar enthalpy (molar enthalpy of mixing); xn = mol fraction of the nth substance listed; conditions: 298.15 K, 101 kPa, Liquid

BrCCCCCCBr [1,6-dibromohexane] + CCOC(C)=O
mass density ([1]; x2 = 0.1101): 1558.02 ± 2.6 kg/m3 | mass density ([1]; x2 = 0.2056): 1515.22 ± 2.7 kg/m3 | mass density ([1]; x2 = 0.2841): 1476.78 ± 2.8 kg/m3 | mass density ([1]; x2 = 0.3679): 1432.01 ± 2.8 kg/m3 | mass density ([1]; x2 = 0.4348): 1393.28 ± 2.8 kg/m3 | mass density ([1]; x2 = 0.5035): 1350.27 ± 2.9 kg/m3 | mass density ([1]; x2 = 0.623): 1266.72 ± 2.8 kg/m3 | mass density ([1]; x2 = 0.733): 1177.88 ± 2.8 kg/m3 | mass density ([1]; x2 = 0.8165): 1101.03 ± 2.7 kg/m3 | mass density ([1]; x2 = 0.8582): 1059.17 ± 2.6 kg/m3 | mass density ([1]; x2 = 0.8988): 1015.65 ± 2.6 kg/m3 | mass density ([1]; x2 = 0.9703): 932.2 ± 2.4 kg/m3 | excess molar enthalpy ([2]; x2 = 0.0852): 0.0323 ± 0.00103 kcal/mol | excess molar enthalpy ([2]; x2 = 0.179): 0.0516 ± 0.00148 kcal/mol | excess molar enthalpy ([2]; x2 = 0.2657): 0.0644 ± 0.00179 kcal/mol | excess molar enthalpy ([2]; x2 = 0.3506): 0.0739 ± 0.00203 kcal/mol | excess molar enthalpy ([2]; x2 = 0.4238): 0.0791 ± 0.00215 kcal/mol | excess molar enthalpy ([2]; x2 = 0.489): 0.0806 ± 0.0022 kcal/mol | excess molar enthalpy ([2]; x2 = 0.5186): 0.0798 ± 0.00217 kcal/mol | excess molar enthalpy ([2]; x2 = 0.5344): 0.0792 ± 0.00215 kcal/mol | excess molar enthalpy ([2]; x2 = 0.5598): 0.078 ± 0.00213 kcal/mol | excess molar enthalpy ([2]; x2 = 0.6031): 0.0735 ± 0.00201 kcal/mol | excess molar enthalpy ([2]; x2 = 0.6495): 0.0677 ± 0.00186 kcal/mol | excess molar enthalpy ([2]; x2 = 0.7011): 0.0608 ± 0.00172 kcal/mol | excess molar enthalpy ([2]; x2 = 0.7507): 0.0522 ± 0.00151 kcal/mol | excess molar enthalpy ([2]; x2 = 0.8025): 0.0431 ± 0.00129 kcal/mol | excess molar enthalpy ([2]; x2 = 0.8542): 0.033 ± 0.00105 kcal/mol | excess molar enthalpy ([2]; x2 = 0.9062): 0.0221 ± 0.000789 kcal/mol | excess molar enthalpy ([2]; x2 = 0.9578): 0.0106 ± 0.00055 kcal/mol

BrCCCCCCBr [1,6-dibromohexane] + CCOC=O
mass density ([1]; x2 = 0.1144): 1557.48 ± 2.6 kg/m3 | mass density ([1]; x2 = 0.2023): 1519.96 ± 2.7 kg/m3 | mass density ([1]; x2 = 0.2923): 1477.74 ± 2.8 kg/m3 | mass density ([1]; x2 = 0.3593): 1443.52 ± 2.8 kg/m3 | mass density ([1]; x2 = 0.5084): 1357.33 ± 2.9 kg/m3 | mass density ([1]; x2 = 0.571): 1316.38 ± 2.9 kg/m3 | mass density ([1]; x2 = 0.6288): 1275.6 ± 2.9 kg/m3 | mass density ([1]; x2 = 0.6788): 1237.72 ± 2.8 kg/m3 | mass density ([1]; x2 = 0.7728): 1159.02 ± 2.8 kg/m3 | mass density ([1]; x2 = 0.8233): 1112.18 ± 2.7 kg/m3 | mass density ([1]; x2 = 0.8545): 1081.46 ± 2.7 kg/m3 | mass density ([1]; x2 = 0.9003): 1033.41 ± 2.6 kg/m3 | excess molar enthalpy ([2]; x2 = 0.1027): 0.00447 ± 0.000454 kcal/mol | excess molar enthalpy ([2]; x2 = 0.2124): 0.127 ± 0.00335 kcal/mol | excess molar enthalpy ([2]; x2 = 0.3116): 0.161 ± 0.00406 kcal/mol | excess molar enthalpy ([2]; x2 = 0.4024): 0.181 ± 0.00454 kcal/mol | excess molar enthalpy ([2]; x2 = 0.4766): 0.19 ± 0.00478 kcal/mol | excess molar enthalpy ([2]; x2 = 0.547): 0.19 ± 0.00478 kcal/mol | excess molar enthalpy ([2]; x2 = 0.6032): 0.183 ± 0.00478 kcal/mol | excess molar enthalpy ([2]; x2 = 0.6673): 0.169 ± 0.0043 kcal/mol | excess molar enthalpy ([2]; x2 = 0.7137): 0.154 ± 0.00406 kcal/mol | excess molar enthalpy ([2]; x2 = 0.7608): 0.136 ± 0.00359 kcal/mol | excess molar enthalpy ([2]; x2 = 0.8062): 0.112 ± 0.00287 kcal/mol | excess molar enthalpy ([2]; x2 = 0.852): 0.0893 ± 0.00239 kcal/mol | excess molar enthalpy ([2]; x2 = 0.8953): 0.0643 ± 0.00179 kcal/mol | excess molar enthalpy ([2]; x2 = 0.9357): 0.0394 ± 0.0012 kcal/mol | excess molar enthalpy ([2]; x2 = 0.9691): 0.0193 ± 0.000741 kcal/mol

CCCCC(=O)OCC [ethyl pentanoate] + BrCCBr
mass density ([1]; x1 = 0.0379): 2085.1 ± 1.3 kg/m3 | mass density ([1]; x1 = 0.0766): 2004.73 ± 1.4 kg/m3 | mass density ([1]; x1 = 0.1567): 1851.43 ± 1.6 kg/m3 | mass density ([1]; x1 = 0.1993): 1776.2 ± 1.7 kg/m3 | mass density ([1]; x1 = 0.2427): 1703.76 ± 1.8 kg/m3 | mass density ([1]; x1 = 0.2945): 1622.25 ± 1.8 kg/m3 | mass density ([1]; x1 = 0.3695): 1512.8 ± 1.9 kg/m3 | mass density ([1]; x1 = 0.5222): 1317.39 ± 2.1 kg/m3 | mass density ([1]; x1 = 0.6601): 1166.3 ± 2.2 kg/m3 | mass density ([1]; x1 = 0.7313): 1096.12 ± 2.2 kg/m3 | mass density ([1]; x1 = 0.8119): 1022.28 ± 2.3 kg/m3 | mass density ([1]; x1 = 0.9074): 941.5 ± 2.3 kg/m3 | excess molar enthalpy ([2]; x1 = 0.0286): 0.00476 ± 0.000454 kcal/mol | excess molar enthalpy ([2]; x1 = 0.0632): 0.0075 ± 0.000478 kcal/mol | excess molar enthalpy ([2]; x1 = 0.103): 0.00966 ± 0.000526 kcal/mol | excess molar enthalpy ([2]; x1 = 0.1465): 0.0103 ± 0.000526 kcal/mol | excess molar enthalpy ([2]; x1 = 0.1918): 0.0102 ± 0.000526 kcal/mol | excess molar enthalpy ([2]; x1 = 0.2375): 0.00848 ± 0.000502 kcal/mol | excess molar enthalpy ([2]; x1 = 0.2837): 0.00418 ± 0.00043 kcal/mol | excess molar enthalpy ([2]; x1 = 0.3283): -0.00098 ± 0.000382 kcal/mol | excess molar enthalpy ([2]; x1 = 0.3711): -0.00485 ± 0.000454 kcal/mol | excess molar enthalpy ([2]; x1 = 0.4026): -0.00825 ± 0.000502 kcal/mol | excess molar enthalpy ([2]; x1 = 0.4465): -0.0112 ± 0.00055 kcal/mol | excess molar enthalpy ([2]; x1 = 0.4938): -0.0142 ± 0.000621 kcal/mol | excess molar enthalpy ([2]; x1 = 0.5538): -0.0165 ± 0.000669 kcal/mol | excess molar enthalpy ([2]; x1 = 0.6297): -0.0178 ± 0.000693 kcal/mol | excess molar enthalpy ([2]; x1 = 0.7132): -0.0175 ± 0.000693 kcal/mol | excess molar enthalpy ([2]; x1 = 0.8085): -0.0143 ± 0.000621 kcal/mol | excess molar enthalpy ([2]; x1 = 0.9099): -0.00844 ± 0.000502 kcal/mol
